Experimental data reported in patent US20040006777A1, “Human lymphoid protein tyrosine phosphatases” (HSC Research and Development Limited Partnership, priority 1998, published 2004).

How the values were obtained:
Cbl = settings: Jurkat cells, pervanadate treatment; cited from earlier work
Lyp1 = molecular target: T1, Lyp1 (Homo sapiens, UniProt Q9Y2R2); test: In vitro phosphatase assay with 33P labelled Raytide peptide and Lyp immunoprecipitates; assay type: biochemical; settings: data not shown
T1 construct: made in house; host or cells: COS cells (transient transfection, pcDNA3); anti-T7 immunoprecipitate
T1 sequence (Q9Y2R2 1-807): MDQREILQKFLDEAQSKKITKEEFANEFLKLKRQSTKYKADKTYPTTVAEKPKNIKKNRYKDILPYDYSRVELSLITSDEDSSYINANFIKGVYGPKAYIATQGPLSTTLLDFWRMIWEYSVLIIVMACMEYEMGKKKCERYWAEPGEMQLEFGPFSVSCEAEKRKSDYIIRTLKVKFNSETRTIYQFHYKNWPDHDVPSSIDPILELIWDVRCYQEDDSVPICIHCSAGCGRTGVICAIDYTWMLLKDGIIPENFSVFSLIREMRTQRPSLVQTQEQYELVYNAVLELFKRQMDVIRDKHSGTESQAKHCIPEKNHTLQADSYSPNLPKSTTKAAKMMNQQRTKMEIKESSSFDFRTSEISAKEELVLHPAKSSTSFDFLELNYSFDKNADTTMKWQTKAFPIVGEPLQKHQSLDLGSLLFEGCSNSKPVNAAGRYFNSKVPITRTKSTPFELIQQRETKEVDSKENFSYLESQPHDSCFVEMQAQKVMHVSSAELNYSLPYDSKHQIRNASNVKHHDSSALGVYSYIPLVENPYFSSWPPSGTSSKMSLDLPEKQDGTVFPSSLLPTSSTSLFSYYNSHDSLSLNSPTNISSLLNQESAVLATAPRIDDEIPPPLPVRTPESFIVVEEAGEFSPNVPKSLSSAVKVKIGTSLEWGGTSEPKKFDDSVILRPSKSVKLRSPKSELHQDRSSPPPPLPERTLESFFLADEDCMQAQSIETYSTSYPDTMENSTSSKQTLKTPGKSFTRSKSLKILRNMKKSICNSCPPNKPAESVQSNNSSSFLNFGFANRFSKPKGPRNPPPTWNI
Procedure: Anti-Lyp immunoprecipitates from untransfected and pcDNA3-Lyp1 transfected cells were prepared in pervanadate free lysis buffer and incubated with ^33P labelled substrate Raytide. At the indicated time points reactions were stopped by the addition of charcoal and the free ^33P released from the peptide and now present in the supernatant measured by liquid scintillation counting.
Raytide peptide was ^33P labelled on tyrosine residues in vitro using the tyrosine kinase p60src and purified on phosphocellulose paper. Release of ^33P over time was measured in the phosphatase assay and compared to controls from untransfected cells.
Specifically, the synthetic peptide Raytide was phosphorylated according to the method described by Guan et al., (1994)(54), on tyrosine by p60src (Oncogene Science) as follows: 10 μg Raytide in 50 mM Hepes pH 7.5, 10 mM MgCl2, 0.067% mercaptoethanol, 0.05 mM ATP was incubated with 300 μCiγ^33P ATP per ml and 2 μg p60src in a final volume of 30 μl. The reaction was allowed to proceed for 30 minutes at 30° C. and was stopped by the addition of […] 10% phosphoric acid.
The sample was spotted onto two 1×1 cm sheets of P81 phophocellulose paper and extensively washed with 0.5% phosphoric acid. […]
The phosphorylated substrate was used in the phosphatase assay as described by Stueli et al (1989)(54). […] After centrifugation the free ^33P in the supernatant was measured.

Substance: pervanadate [reference compound]
- phosphorylation of Cbl (Cbl): marked increase
- inhibition of Lyp tyrosine phosphatase activity (Lyp1): completely inhibited
